# Reference: patent US11419921B2, “Methods of treating neurological disorders” (EnClear Therapies, Inc., priority 2018, dated 2022)
# Tests used:
# [1] = tested on: (GR)10; assay: (GR)10 digestion with immobilized proteases in human cerebrospinal fluid (CSF); type: biochemical; conditions: immobilized enzyme
# Protocol: Protease solutions were prepared at 2 mg/mL in sterile PBS with calcium, magnesium and 200 μL ([…]) were applied to 100 μL of pre-washed NHS-activated agarose resin in 0.8 mL centrifuge columns. Reactions were left 1.5 hour at room temperature with end-to-end mixing, after which resins were washed with 12 resin volumes of PBS. Unreacted sites were blocked with 500 μL of 1M ethanolamine for 15 minutes at room temperature and resins were further washed with 24 resin volumes. Resins were stored at 4 degrees in 500 μL of PBS containing 0.05% sodium azide as preservative.
# 200 μM of (GR)10 were diluted in human cerebrospinal fluid (CSF) and 400 μL were applied to each immobilized proteases. The reaction was incubated 5 minutes at room temperature with end-to-end mixing. Columns were spun down 1 minute at 1,000 Xg to recover digested GR dipeptides. Columns were washed with 12 resin volumes of PBS. The procedure was repeated with 60 minutes digestion time. 100 μL of each samples were transferred to a clean tube, flash-frozen and subsequently used for LC/MS quantification of GR repeats of different lengths. The remaining 300 μL of each samples were flash-frozen and used to assess neuron toxicity.
# (GR)10 was digested with exemplary immobilized enzymes as described above in the subsection titled “(GR)10 digestion with immobilized proteases in CSF” of Example 3. Clostripain experiments were conducted with and without DTT activation (no DTT during digestion). The results obtained after 5 and 60 minutes of reaction time are presented in Table 25 and shown in FIG. 5 (commercial and in-house immobilized trypsin), FIG. 6 (immobilized elastase, FIG. 7A (immobilized clostripain without DTT) and FIG. 7 (immobilized clostripain with 2.5 mM DTT).
# [2] = tested on: (GR)10; assay: Cleavage of (GR)10 by enzymes in solution (PBS with CaCl2 and MgCl2), LC/MS of GR repeats; type: biochemical; conditions: for (GR)1 concentration / (GR)2 concentration / (GR)4 concentration / (GR)6 concentration / (GR)8 concentration / (GR)10 concentration: (GR)10 50 μM; for (GR)1 / (GR)2 / (GR)3 / (GR)4 / (GR)5 / (GR)6 / (GR)8 / (GR)10: PBS, normalized
# Protocol: • (GR)10 dipeptide (also (GR)8, (GR)6, (GR)4, (GR)2) were synthetized by solid-phase synthesis by CanPeptide; All peptides are uncapped and supplied lyophilized with TFA as counter ions. Purity was always above 95%. • Buffer: PBS buffer containing CaCl2 and MgCl2. • Stock solution of enzyme (e.g., 10 mg/mL) (prepared per manufacturer instructions) in PBS. Activators added as necessary. • Working solution of protein of the desired concentration (e.g., 100 μg/mL) prepared immediately before use by diluting the stock solution (e.g., 5 μL of 10 mg/mL stock solution) in PBS buffer (e.g., in 495 μL of PBS). Exemplary Procedure Using 50 μM Concentrations of (GR)10
# 25 μL of a 100 μM solution of (GR)10 was added to each well of a 96-well plate. 25 μL of a solution of enzyme (two times the desired final enzyme concentration) was added, and the plates were incubated at room temperature. At the specified time points (5 minutes, 10 minutes, 30 minutes, 60 minutes, and 180 minutes) 2.5 μL of a 10% TFA solution were added to stop the reaction. For the time 0 min well, the TFA was added to the well before addition of the enzyme. After last time point, all samples were further diluted with 150 μL of dilution solution. The quenched reaction mixtures were analyzed by LC/MS to determine the concentration of GR repeats of different lengths.
# The chromatography and mass spectrometry conditions utilized are shown in Table 2 and Table 3, respectively.
substance,measurement,setting,value
Elastase: protease that cleaves at the carboxyl side of small hydrophobic amino acids; in Table 22 also immobilized on agarose resin,(GR)1 (normalized uM),[1]; 5 min reaction,57.4 µM
same,(GR)2 (normalized uM),[1]; 5 min reaction,29.4 µM
same,(GR)3 (normalized uM),[1]; 5 min reaction,20.7 µM
same,(GR)4 (normalized uM),[1]; 5 min reaction,22 µM
same,(GR)5 (normalized uM),[1]; 5 min reaction,10.5 µM
same,(GR)6 (normalized uM),[1]; 5 min reaction,0.0 µM
same,(GR)8 (normalized uM),[1]; 5 min reaction,0.0 µM
same,(GR)10 (normalized uM),[1]; 5 min reaction,0.0 µM
same,(GR)1 (normalized uM),[1]; 60 min reaction,200.3 µM
same,(GR)2 (normalized uM),[1]; 60 min reaction,6 µM
same,(GR)3 (normalized uM),[1]; 60 min reaction,0.0 µM
same,(GR)4 (normalized uM),[1]; 60 min reaction,0.0 µM
same,(GR)5 (normalized uM),[1]; 60 min reaction,0.0 µM
same,(GR)6 (normalized uM),[1]; 60 min reaction,0.0 µM
same,(GR)8 (normalized uM),[1]; 60 min reaction,0.0 µM
same,(GR)10 (normalized uM),[1]; 60 min reaction,0.0 µM
same,(GR)1 concentration,"[2]; enzyme 2.5 μg/mL, 0 min",BLQ
same,(GR)2 concentration,"[2]; enzyme 2.5 μg/mL, 0 min",BLQ
same,(GR)4 concentration,"[2]; enzyme 2.5 μg/mL, 0 min",BLQ
same,(GR)6 concentration,"[2]; enzyme 2.5 μg/mL, 0 min",BLQ
same,(GR)8 concentration,"[2]; enzyme 2.5 μg/mL, 0 min",BLQ
same,(GR)10 concentration,"[2]; enzyme 2.5 μg/mL, 0 min",53.8 µM
same,(GR)1 concentration,"[2]; enzyme 2.5 μg/mL, 5 min",0.2 µM
same,(GR)2 concentration,"[2]; enzyme 2.5 μg/mL, 5 min",0.2 µM
same,(GR)4 concentration,"[2]; enzyme 2.5 μg/mL, 5 min",BLQ
same,(GR)6 concentration,"[2]; enzyme 2.5 μg/mL, 5 min",BLQ
same,(GR)8 concentration,"[2]; enzyme 2.5 μg/mL, 5 min",0.3 µM
same,(GR)10 concentration,"[2]; enzyme 2.5 μg/mL, 5 min",52.6 µM
same,(GR)1 concentration,"[2]; enzyme 2.5 μg/mL, 10 min",0.3 µM
same,(GR)2 concentration,"[2]; enzyme 2.5 μg/mL, 10 min",0.2 µM
same,(GR)4 concentration,"[2]; enzyme 2.5 μg/mL, 10 min",0.2 µM
same,(GR)6 concentration,"[2]; enzyme 2.5 μg/mL, 10 min",BLQ
same,(GR)8 concentration,"[2]; enzyme 2.5 μg/mL, 10 min",0.6 µM
same,(GR)10 concentration,"[2]; enzyme 2.5 μg/mL, 10 min",52.5 µM
same,(GR)1 concentration,"[2]; enzyme 2.5 μg/mL, 30 min",1.3 µM
same,(GR)2 concentration,"[2]; enzyme 2.5 μg/mL, 30 min",0.8 µM
same,(GR)4 concentration,"[2]; enzyme 2.5 μg/mL, 30 min",0.7 µM
same,(GR)6 concentration,"[2]; enzyme 2.5 μg/mL, 30 min",0.7 µM
same,(GR)8 concentration,"[2]; enzyme 2.5 μg/mL, 30 min",0.6 µM
same,(GR)10 concentration,"[2]; enzyme 2.5 μg/mL, 30 min",43.6 µM
same,(GR)1 concentration,"[2]; enzyme 2.5 μg/mL, 60 min",2.3 µM
same,(GR)2 concentration,"[2]; enzyme 2.5 μg/mL, 60 min",1.4 µM
same,(GR)4 concentration,"[2]; enzyme 2.5 μg/mL, 60 min",1.4 µM
same,(GR)6 concentration,"[2]; enzyme 2.5 μg/mL, 60 min",1.0 µM
same,(GR)8 concentration,"[2]; enzyme 2.5 μg/mL, 60 min",1.6 µM
same,(GR)10 concentration,"[2]; enzyme 2.5 μg/mL, 60 min",35.3 µM
same,(GR)1 concentration,"[2]; enzyme 2.5 μg/mL, 120 min",4.3 µM
same,(GR)2 concentration,"[2]; enzyme 2.5 μg/mL, 120 min",2.1 µM
same,(GR)4 concentration,"[2]; enzyme 2.5 μg/mL, 120 min",2.3 µM
same,(GR)6 concentration,"[2]; enzyme 2.5 μg/mL, 120 min",1.5 µM
same,(GR)8 concentration,"[2]; enzyme 2.5 μg/mL, 120 min",2.5 µM
same,(GR)10 concentration,"[2]; enzyme 2.5 μg/mL, 120 min",24.9 µM
same,(GR)1 concentration,"[2]; enzyme 10 μg/mL, 0 min",BLQ
same,(GR)2 concentration,"[2]; enzyme 10 μg/mL, 0 min",BLQ
same,(GR)4 concentration,"[2]; enzyme 10 μg/mL, 0 min",BLQ
same,(GR)6 concentration,"[2]; enzyme 10 μg/mL, 0 min",BLQ
same,(GR)8 concentration,"[2]; enzyme 10 μg/mL, 0 min",BLQ
same,(GR)10 concentration,"[2]; enzyme 10 μg/mL, 0 min",41.6 µM
same,(GR)1 concentration,"[2]; enzyme 10 μg/mL, 5 min",0.8 µM
same,(GR)2 concentration,"[2]; enzyme 10 μg/mL, 5 min",0.5 µM
same,(GR)4 concentration,"[2]; enzyme 10 μg/mL, 5 min",0.5 µM
same,(GR)6 concentration,"[2]; enzyme 10 μg/mL, 5 min",0.4 µM
same,(GR)8 concentration,"[2]; enzyme 10 μg/mL, 5 min",0.9 µM
same,(GR)10 concentration,"[2]; enzyme 10 μg/mL, 5 min",50.5 µM
same,(GR)1 concentration,"[2]; enzyme 10 μg/mL, 10 min",1.4 µM
same,(GR)2 concentration,"[2]; enzyme 10 μg/mL, 10 min",0.8 µM
same,(GR)4 concentration,"[2]; enzyme 10 μg/mL, 10 min",0.7 µM
same,(GR)6 concentration,"[2]; enzyme 10 μg/mL, 10 min",0.8 µM
same,(GR)8 concentration,"[2]; enzyme 10 μg/mL, 10 min",0.9 µM
same,(GR)10 concentration,"[2]; enzyme 10 μg/mL, 10 min",37.8 µM
same,(GR)1 concentration,"[2]; enzyme 10 μg/mL, 30 min",5.1 µM
same,(GR)2 concentration,"[2]; enzyme 10 μg/mL, 30 min",2.5 µM
same,(GR)4 concentration,"[2]; enzyme 10 μg/mL, 30 min",2.2 µM
same,(GR)6 concentration,"[2]; enzyme 10 μg/mL, 30 min",1.6 µM
same,(GR)8 concentration,"[2]; enzyme 10 μg/mL, 30 min",2.8 µM
same,(GR)10 concentration,"[2]; enzyme 10 μg/mL, 30 min",21.1 µM
same,(GR)1 concentration,"[2]; enzyme 10 μg/mL, 60 min",8.3 µM
same,(GR)2 concentration,"[2]; enzyme 10 μg/mL, 60 min",3.7 µM
same,(GR)4 concentration,"[2]; enzyme 10 μg/mL, 60 min",2.8 µM
same,(GR)6 concentration,"[2]; enzyme 10 μg/mL, 60 min",2.2 µM
same,(GR)8 concentration,"[2]; enzyme 10 μg/mL, 60 min",3.3 µM
same,(GR)10 concentration,"[2]; enzyme 10 μg/mL, 60 min",12.2 µM
same,(GR)1 concentration,"[2]; enzyme 10 μg/mL, 120 min",15.1 µM
same,(GR)2 concentration,"[2]; enzyme 10 μg/mL, 120 min",6.3 µM
same,(GR)4 concentration,"[2]; enzyme 10 μg/mL, 120 min",3.2 µM
same,(GR)6 concentration,"[2]; enzyme 10 μg/mL, 120 min",2.0 µM
same,(GR)8 concentration,"[2]; enzyme 10 μg/mL, 120 min",1.3 µM
same,(GR)10 concentration,"[2]; enzyme 10 μg/mL, 120 min",2.4 µM
same,(GR)1,[2]; in solution - 5 min reaction,1.4 µM
same,(GR)2,[2]; in solution - 5 min reaction,2.9 µM
same,(GR)3,[2]; in solution - 5 min reaction,2.1 µM
same,(GR)4,[2]; in solution - 5 min reaction,3.1 µM
same,(GR)5,[2]; in solution - 5 min reaction,2.3 µM
same,(GR)6,[2]; in solution - 5 min reaction,4.4 µM
same,(GR)8,[2]; in solution - 5 min reaction,6.8 µM
same,(GR)10,[2]; in solution - 5 min reaction,213.3 µM
same,(GR)1,[2]; in solution - 60 min reaction,5.4 µM
same,(GR)2,[2]; in solution - 60 min reaction,12.8 µM
same,(GR)3,[2]; in solution - 60 min reaction,8.5 µM
same,(GR)4,[2]; in solution - 60 min reaction,8.8 µM
same,(GR)5,[2]; in solution - 60 min reaction,6.0 µM
same,(GR)6,[2]; in solution - 60 min reaction,9 µM
same,(GR)8,[2]; in solution - 60 min reaction,12.8 µM
same,(GR)10,[2]; in solution - 60 min reaction,21.6 µM
